Legend:
[1] = target: Dual specificity tyrosine-phosphorylation-regulated kinase 1A (Rattus norvegicus) (UniProt Q63470); assay: Inhibition of recombinant rat DYRK1A kinase domain (1 to 499 residues) expressed in bacteria assessed as enzyme residual activity using KKISGRLSPIMTEQ as substrate at 1 uM incubated for 30 mins in presence of ATP by ADP-Glo kinase assay
[2] = test system: U2OS; assay: Induction of cell cycle arrest in human U2OS cells assessed as proportion of cells at G2/M phase at 5 uM incubated for 24 hrs by flow cytometry (reference value: 16%); format: functional
[3] = test system: TERT-RPE1; assay: cells; conditions: Homo sapiens, RPE-1, 48 h
Description: Cytotoxicity against human TERT-RPE1 cells assessed as reduction in cell viability incubated for 48 hrs by MTS assay

[4] = test system: U2OS; assay: Induction of cell cycle arrest in human U2OS cells assessed as proportion of cells at G1 phase at 5 uM incubated for 24 hrs by flow cytometry (reference value: 45%); format: functional
[5] = target: T1, Serine/threonine-protein kinase haspin (Homo sapiens, UniProt Q8TF76); assay: Inhibition of recombinant human Haspin kinase domain (470 to 798 residues) expressed in bacteria using histone H3 (1 to 21) peptide as substrate incubated for 30 mins in presence of ATP by ADP-Glo kinase assay
T1 sequence (Q8TF76 whole entry): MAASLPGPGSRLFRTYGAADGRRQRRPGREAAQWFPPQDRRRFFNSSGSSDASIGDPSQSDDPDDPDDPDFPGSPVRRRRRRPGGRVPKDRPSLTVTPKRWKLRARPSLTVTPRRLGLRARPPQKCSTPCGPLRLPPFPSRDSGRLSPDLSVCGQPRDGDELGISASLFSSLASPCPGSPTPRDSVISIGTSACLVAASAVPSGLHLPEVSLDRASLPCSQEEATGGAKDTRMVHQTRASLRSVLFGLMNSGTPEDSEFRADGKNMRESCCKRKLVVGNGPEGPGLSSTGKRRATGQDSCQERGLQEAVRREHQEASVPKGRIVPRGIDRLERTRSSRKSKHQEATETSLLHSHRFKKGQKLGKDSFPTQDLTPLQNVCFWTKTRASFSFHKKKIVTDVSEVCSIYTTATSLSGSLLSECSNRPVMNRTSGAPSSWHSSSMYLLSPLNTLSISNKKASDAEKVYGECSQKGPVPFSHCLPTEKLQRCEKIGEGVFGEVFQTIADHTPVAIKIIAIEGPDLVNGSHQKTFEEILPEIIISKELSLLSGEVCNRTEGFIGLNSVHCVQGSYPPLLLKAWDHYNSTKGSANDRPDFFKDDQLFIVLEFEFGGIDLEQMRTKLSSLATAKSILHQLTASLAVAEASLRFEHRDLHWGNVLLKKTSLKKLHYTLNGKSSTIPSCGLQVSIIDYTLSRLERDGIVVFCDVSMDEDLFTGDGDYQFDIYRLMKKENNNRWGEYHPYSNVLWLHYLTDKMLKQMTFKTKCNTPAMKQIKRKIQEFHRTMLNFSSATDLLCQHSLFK

[6] = target: T2, Serine/threonine-protein kinase pim-1 (Homo sapiens, UniProt P11309); assay: Inhibition of human recombinant PIM-1 expressed in bacteria assessed as enzyme residual activity using histone H1 as substrate at 10 uM incubated for 30 mins in presence of ATP by ADP-Glo kinase assay
Target sequence in this assay (P11309 whole entry, looked up, the tested form may be a part): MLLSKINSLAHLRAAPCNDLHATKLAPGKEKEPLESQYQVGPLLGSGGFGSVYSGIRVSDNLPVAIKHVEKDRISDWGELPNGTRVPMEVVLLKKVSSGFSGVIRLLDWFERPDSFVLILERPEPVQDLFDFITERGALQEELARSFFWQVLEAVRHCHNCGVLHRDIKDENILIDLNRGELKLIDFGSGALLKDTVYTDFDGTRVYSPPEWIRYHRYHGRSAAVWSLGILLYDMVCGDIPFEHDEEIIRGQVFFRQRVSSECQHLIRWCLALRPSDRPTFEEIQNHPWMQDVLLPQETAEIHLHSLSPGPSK

[7] = target: Dual specificity tyrosine-phosphorylation-regulated kinase 1A (Rattus norvegicus) (UniProt Q63470); assay: Inhibition of recombinant rat DYRK1A kinase domain (1 to 499 residues) expressed in bacteria assessed as enzyme residual activity using KKISGRLSPIMTEQ as substrate at 10 uM incubated for 30 mins in presence of ATP by ADP-Glo kinase assay
[8] = target: Dual specificity tyrosine-phosphorylation-regulated kinase 1A (Rattus norvegicus, UniProt Q63470); assay: Inhibition of recombinant rat DYRK1A kinase domain (1 to 499 residues) expressed in bacteria using KKISGRLSPIMTEQ as substrate incubated for 30 mins in presence of ATP by ADP-Glo kinase assay
[9] = target: Dual specificity protein kinase CLK1 (Mus musculus, UniProt P22518); assay: Inhibition of recombinant mouse CLK1 expressed in bacteria using GRSRSRSRSRSR as substrate incubated for 30 mins in presence of ATP by ADP-Glo kinase assay
Chain of Dual specificity protein kinase CLK1 (P22518 whole entry): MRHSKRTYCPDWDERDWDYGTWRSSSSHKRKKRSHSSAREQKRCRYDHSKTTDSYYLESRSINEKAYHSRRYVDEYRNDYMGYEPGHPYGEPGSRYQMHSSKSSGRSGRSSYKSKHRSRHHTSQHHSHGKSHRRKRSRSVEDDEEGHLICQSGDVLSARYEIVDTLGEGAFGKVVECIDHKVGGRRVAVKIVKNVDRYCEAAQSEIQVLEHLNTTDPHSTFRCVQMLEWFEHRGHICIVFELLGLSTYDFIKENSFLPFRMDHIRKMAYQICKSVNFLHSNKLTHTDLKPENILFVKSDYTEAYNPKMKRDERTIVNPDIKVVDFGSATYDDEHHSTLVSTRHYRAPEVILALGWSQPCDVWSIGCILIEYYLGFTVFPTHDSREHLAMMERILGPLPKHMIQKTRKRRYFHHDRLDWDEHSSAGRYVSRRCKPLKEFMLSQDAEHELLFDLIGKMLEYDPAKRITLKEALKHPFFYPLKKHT

[10] = test system: HCT-116; assay: cells; conditions: Homo sapiens, HCT-116, 48 h
Description: Antiproliferative activity against human HCT-116 cells assessed as reduction in cell viability incubated for 48 hrs by MTS assay

[11] = test system: HBL-100; assay: cells; conditions: Homo sapiens, HBL-100, 48 h
Description: Antiproliferative activity against human HBL-100 cells assessed as reduction in cell viability incubated for 48 hrs by MTS assay

[12] = test system: U2OS; assay: Induction of cell cycle arrest in human U2OS cells assessed as proportion of cells at S phase at 5 uM incubated for 24 hrs by flow cytometry (reference value: 39%); format: functional
[13] = test system: U2OS; assay: Induction of cell cycle arrest in human U2OS cells assessed as proportion of cells at S phase at 2.5 uM incubated for 24 hrs by flow cytometry (reference value: 39%); format: functional
[14] = target: T3, Cyclin-dependent kinase 5/CDK5 activator 1 (Homo sapiens) (UniProt Q00535+Q15078); assay: Inhibition of human recombinant CDK5/p25 expressed in bacteria assessed as enzyme residual activity using histone H1 as substrate at 10 uM incubated for 30 mins in presence of ATP by ADP-Glo kinase assay
T3 sequence (Q00535 whole entry): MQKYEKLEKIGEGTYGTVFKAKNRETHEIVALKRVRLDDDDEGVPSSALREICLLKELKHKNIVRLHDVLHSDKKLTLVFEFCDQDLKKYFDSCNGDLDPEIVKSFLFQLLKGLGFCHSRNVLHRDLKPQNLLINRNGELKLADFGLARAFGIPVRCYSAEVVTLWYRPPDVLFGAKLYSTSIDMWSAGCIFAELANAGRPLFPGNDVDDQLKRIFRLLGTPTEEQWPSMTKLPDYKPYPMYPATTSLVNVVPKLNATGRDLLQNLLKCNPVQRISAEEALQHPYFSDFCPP
T3 sequence (Q15078 99-307 partner limits assumed): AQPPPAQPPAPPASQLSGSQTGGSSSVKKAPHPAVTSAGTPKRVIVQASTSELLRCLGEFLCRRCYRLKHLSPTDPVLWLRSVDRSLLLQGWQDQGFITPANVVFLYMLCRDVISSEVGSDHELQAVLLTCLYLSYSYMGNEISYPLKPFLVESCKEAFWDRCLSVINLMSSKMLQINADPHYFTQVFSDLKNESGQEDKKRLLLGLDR

[15] = target: T4, CDK9/cyclin T1 (Homo sapiens) (UniProt O60563+P50750); assay: Inhibition of human recombinant CDK9/cyclin T expressed in baculovirus-infected Sf9 cells assessed as enzyme residual activity using YSPTSPSYSPTSPSYSPTSPSKKKK as substrate at 10 uM incubated for 30 mins in presence of ATP by ADP-Glo kinase assay
[16] = target: Casein kinase I isoform epsilon (Homo sapiens) (UniProt P49674); assay: Inhibition of human recombinant CK1 epsilon expressed in baculovirus-infected Sf9 cells assessed as enzyme residual activity using RRKHAAIGSpAYSITA as substrate at 10 uM incubated for 30 mins in presence of ATP by ADP-Glo kinase assay
Chain of Casein kinase I isoform epsilon (Homo sapiens) (P49674 whole entry, looked up, canonical isoform): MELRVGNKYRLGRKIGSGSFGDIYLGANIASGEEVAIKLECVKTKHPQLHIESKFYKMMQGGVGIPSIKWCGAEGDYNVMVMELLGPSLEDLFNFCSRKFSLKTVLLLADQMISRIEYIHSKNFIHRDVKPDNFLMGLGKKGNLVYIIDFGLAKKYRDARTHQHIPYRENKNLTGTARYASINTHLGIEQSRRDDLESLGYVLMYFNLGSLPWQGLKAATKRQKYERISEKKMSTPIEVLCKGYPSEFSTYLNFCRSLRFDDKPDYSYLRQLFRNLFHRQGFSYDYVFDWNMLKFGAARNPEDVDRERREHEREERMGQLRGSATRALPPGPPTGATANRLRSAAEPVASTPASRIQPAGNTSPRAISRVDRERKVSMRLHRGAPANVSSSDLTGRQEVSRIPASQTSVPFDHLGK

[17] = target: T3, Cyclin-dependent kinase 5/CDK5 activator 1 (Homo sapiens); assay: Inhibition of human recombinant CDK5/p25 expressed in bacteria assessed as enzyme residual activity using histone H1 as substrate at 1 uM incubated for 30 mins in presence of ATP by ADP-Glo kinase assay
[18] = target: Glycogen synthase kinase-3 beta (Homo sapiens) (UniProt P49841); assay: Inhibition of human recombinant GSK-3 beta expressed in baculovirus-infected Sf9 cells assessed as enzyme residual activity using YRRAAVPPSPSLSRHSSPHQSpEDEEE as substrate at 1 uM incubated for 30 mins in presence of ATP by ADP-Glo kinase assay
Chain of Glycogen synthase kinase-3 beta (Homo sapiens) (P49841 whole entry, looked up): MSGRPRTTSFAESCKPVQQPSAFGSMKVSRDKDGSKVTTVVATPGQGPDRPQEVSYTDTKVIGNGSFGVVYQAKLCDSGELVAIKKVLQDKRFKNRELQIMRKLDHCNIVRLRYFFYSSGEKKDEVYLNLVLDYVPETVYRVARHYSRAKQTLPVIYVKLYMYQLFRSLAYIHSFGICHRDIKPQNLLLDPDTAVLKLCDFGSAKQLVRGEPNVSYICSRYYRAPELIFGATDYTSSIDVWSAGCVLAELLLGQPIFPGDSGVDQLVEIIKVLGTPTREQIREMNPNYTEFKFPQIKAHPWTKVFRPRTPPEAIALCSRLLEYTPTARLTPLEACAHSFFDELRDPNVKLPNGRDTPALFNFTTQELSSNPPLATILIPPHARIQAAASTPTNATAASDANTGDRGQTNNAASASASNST

[19] = test system: U2OS; assay: cells; conditions: Homo sapiens, 48 h
Description: Antiproliferative activity against human U2OS cells assessed as reduction in cell viability incubated for 48 hrs by MTS assay

[20] = target: Casein kinase I isoform epsilon (Homo sapiens) (UniProt P49674); assay: Inhibition of human recombinant CK1 epsilon expressed in baculovirus-infected Sf9 cells assessed as enzyme residual activity using RRKHAAIGSpAYSITA as substrate at 1 uM incubated for 30 mins in presence of ATP by ADP-Glo kinase assay
[21] = target: T2, Serine/threonine-protein kinase pim-1; assay: Inhibition of human recombinant PIM-1 expressed in bacteria assessed as enzyme residual activity using histone H1 as substrate at 1 uM incubated for 30 mins in presence of ATP by ADP-Glo kinase assay
Target sequence in this assay (P11309 whole entry, looked up, the tested form may be a part): as the sequence (P11309 whole entry, looked up, the tested form may be a part) above

[22] = target: Dual specificity protein kinase CLK1 (Mus musculus) (UniProt P22518); assay: Inhibition of recombinant mouse CLK1 expressed in bacteria assessed as enzyme residual activity using GRSRSRSRSRSR as substrate at 1 uM incubated for 30 mins in presence of ATP by ADP-Glo kinase assay
Chain of Dual specificity protein kinase CLK1 (Mus musculus) (P22518 whole entry, looked up): as the sequence (P22518 whole entry) above

[23] = target: T4, CDK9/cyclin T1 (Homo sapiens); assay: Inhibition of human recombinant CDK9/cyclin T expressed in baculovirus-infected Sf9 cells assessed as enzyme residual activity using YSPTSPSYSPTSPSYSPTSPSKKKK as substrate at 1 uM incubated for 30 mins in presence of ATP by ADP-Glo kinase assay
[24] = target: T2, Serine/threonine-protein kinase pim-1; assay: Inhibition of human recombinant PIM-1 expressed in bacteria using histone H1 as substrate incubated for 30 mins in presence of ATP by ADP-Glo kinase assay
Target sequence in this assay (P11309 whole entry, the tested form may be a part): as the sequence (P11309 whole entry, looked up, the tested form may be a part) above

[25] = target: Glycogen synthase kinase-3 beta (Homo sapiens) (UniProt P49841); assay: Inhibition of human recombinant GSK-3 beta expressed in baculovirus-infected Sf9 cells assessed as enzyme residual activity using YRRAAVPPSPSLSRHSSPHQSpEDEEE as substrate at 10 uM incubated for 30 mins in presence of ATP by ADP-Glo kinase assay
[26] = test system: U2OS; assay: Induction of cell cycle arrest in human U2OS cells assessed as proportion of cells at G1 phase at 2.5 uM incubated for 24 hrs by flow cytometry (reference value: 45%); format: functional
[27] = test system: U2OS; assay: Induction of cell cycle arrest in human U2OS cells assessed as proportion of cells at G2/M phase at 2.5 uM incubated for 24 hrs by flow cytometry (reference value: 16%); format: functional
[28] = target: Dual specificity protein kinase CLK1 (Mus musculus) (UniProt P22518); assay: Inhibition of recombinant mouse CLK1 expressed in bacteria assessed as enzyme residual activity using GRSRSRSRSRSR as substrate at 10 uM incubated for 30 mins in presence of ATP by ADP-Glo kinase assay
[29] = test system: SH-SY5Y; assay: cells; conditions: Homo sapiens, 48 h
Description: Antiproliferative activity against human SH-SY5Y cells assessed as reduction in cell viability incubated for 48 hrs by MTS assay

[30] = test system: U2OS; assay: Induction of cell cycle arrest in human U2OS cells assessed as proportion of cells at G2/M phase at 0.5 uM incubated for 24 hrs by flow cytometry (reference value: 16%); format: functional
[31] = test system: U2OS; assay: Induction of cell cycle arrest in human U2OS cells assessed as proportion of cells at G1 phase at 0.5 uM incubated for 24 hrs by flow cytometry (reference value: 45%); format: functional
[32] = test system: U2OS; assay: Induction of cell cycle arrest in human U2OS cells assessed as proportion of cells at S phase at 0.5 uM incubated for 24 hrs by flow cytometry (reference value: 39%); format: functional

| Compound | Activity [1] | Activity [2] | EC50 [3] | Activity [4] | Activity [6] | Activity [7] | EC50 [10] | EC50 [11] | Activity [12] | Activity [13] | Activity [14] | Activity [15] | Activity [16] | Activity [17] | Activity [18] | EC50 [19] | Activity [20] | Activity [21] | Activity [22] | Activity [23] | further results |
| --- | --- | --- | --- | --- | --- | --- | --- | --- | --- | --- | --- | --- | --- | --- | --- | --- | --- | --- | --- | --- | --- |
| c1cc(-c2c[nH]c3cc4cnccc4cc23)ccn1 | 46% | 18% | 7.8 µM | 37% | 9% | 11% | 7.3 µM | 24.1 µM | 45% | 39% | 10% | 38% | 25% | 79% | 92% | 11.2 µM | 61% | 49% | 46% | 78% | IC50 [5]: 0.076 µM; IC50 [8]: 0.513 µM; IC50 [9]: 0.693 µM; IC50 [24]: 0.479 µM; Activity [25]: 54%; Activity [26]: 48%; Activity [27]: 13%; Activity [28]: 17%; EC50 [29]: 20 µM |
| CCCNc1ccc2ncc(-c3ccc4[nH]ncc4c3)n2n1 | – | – | – | – | – | – | – | – | – | – | – | – | – | – | – | – | – | – | – | – | Activity [30]: 18%; Activity [31]: 38%; Activity [32]: 44% |
| CCn1ncc2cc3cnccc3c(N)c21 | 23% | 25% | 0.3 µM | 32% | 60% | 6% | 1.2 µM | 7.3 µM | 43% | 40% | 28% | 50% | 48% | 65% | 82% | 2.7 µM | 84% | 91% | 34% | 80% | Activity [25]: 42%; Activity [26]: 44%; Activity [27]: 16%; Activity [28]: 8%; EC50 [29]: 1.2 µM |
